pIC50: −log10 of the molar value.
How the values were obtained:
[1] = system: P. yoelii; assay: Mouse 4-day suppressive test vs P. yoelii; assay type: in vivo; conditions: Plasmodium yoelii, P. yoelii YM strain, 7 oral doses in 4 days, CD1 mice, parasitaemia day 5
Procedure: 2. In vivo Activity vs. P.yoelii in the Mouse
In vivo activity was determined using the modified 4-day suppressive test involving an infection of the YM strain of P.yoelii by 3×10^6 parasitized erythrocytes/ml and 7 oral doses given in 4 days in CD1 mice. Drugs were formulated by ball milling overnight in 0.25% celacol with stainless steel balls to form a fine particle suspension. The total requirement was formulated at the beginning of a test and thereafter stored at 4° C. On the morning of day 5 smears of tail blood were prepared from each mouse, the parasitaemias counted and the inhibition as compared to control animals calculated. Data were analysed to yield ED50 values by the best fit to a sigmoidal dose response curve, and the results are presented in Table 2 below.

[2] = system: Plasmodium falciparum; assay: In vitro activity vs. Plasmodium falciparum (modified semi-automated microdilution technique of Desjardins et al, [3H]-hypoxanthine); assay type: cell-based; conditions: Erythrocyte, human erythrocytes, RPMI 1640 + 10% human plasma, 37° C, number of tests in parentheses in own column
Procedure: 1. In vitro Activity vs. Plasmodium falciparum The in vitro activity of the test compounds was determined using a modification of the semi-automated microdilution technique of Desjardins et al (1979). Initial dilutions were prepared from 1/100th molecular weight (in mg) of the compounds dissolved in dry ethanol, with the first 1:100 dilution being in ethanol and subsequent dilutions in RPMI 1640 medium supplemented with 10% v/v human plasma. Serial 1:2 drug dilutions were prepared in microtitration trays using microdiluters, each dilution being set up in triplicate. To this was added RPMI 1640 medium supplemented with 10% v/v human plasma, fresh and infected type A Rhesus positive human erythrocytes to yield a haematocrit of 3% and a parasitaemia of 0.25-0.5%. [^3 H]-hypoxanthine was added to give a final concentration of 12.5-16 μCi/ml of culture. The plates were sealed and incubated in a modular incubator in a gas mixture of 5% O2; 3% CO2 and 92% N2 by volume at 37° C. The test was completed as described by Desjardins et at (1979). Data were analysed to yield IC50 values by best fit to a sigmoidal dose-response curve.

pIC50 [2] | Structure (SMILES) | ED50 [1]
5.60 | Cc1cc(=O)c(-c2ccc(Oc3ccc(Cl)cc3)cc2)c(C)[nH]1 [Example 1, 3-(4-(4-Chlorophenoxy)phenyl)-2,6-dimethylpyridin-4(1H)-one] | 2.5 mg/kg
6.70 | Cc1[nH]c(C)c(-c2ccc(Oc3ccc(Cl)cc3)cc2)c(=O)c1Br [Example 2, 3-Bromo-5-[4-(4-chlorophenoxy)phenyl]-2,6-dimethylpyridin-4(1H)-one] | 0.7 mg/kg
5.85 | Cc1[nH]c(C)c(-c2ccc(Oc3ccc(Cl)cc3)cc2)c(=O)c1Cl [Example 3, 3-Chloro-5-(4-(4-chlorophenoxy)phenyl)-2,6-dimethylpyridin-4(1H)-one] | 1.6 mg/kg
5.96 | Cc1cc(=O)c(-c2ccc(Oc3ccc(C(F)(F)F)cc3)cc2)c(C)[nH]1 [Example 4, 3-(4-(4-Trifluoromethylphenoxy)phenyl)-2,6-dimethylpyridin-4(1H)-one] | 1.25 mg/kg
6.66 | Cc1[nH]c(C)c(-c2ccc(Oc3ccc(C(F)(F)F)cc3)cc2)c(=O)c1Br [Example 5, 3-Bromo-5-(4-(4-trifluoromethylphenoxy)phenyl)-2,6-dimethylpyridin-4(1H)-one] | 0.26 mg/kg
5.08 | Cc1cc(=O)c(-c2ccc(-c3ccc(Cl)cc3)cc2)c(C)[nH]1 [Example 6, 3-(4'-Chloro-4-biphenylyl)-2,6-dimethylpyridin-4(1H)-one] | 1.6 mg/kg
5.70 | Cc1[nH]c(C)c(-c2ccc(-c3ccc(Cl)cc3)cc2)c(=O)c1Br [Example 7, 3-Bromo-5-(4'-chloro-4-biphenylyl)-2,6-dimethylpyridin-4(1H)-one] | 1.4 mg/kg
6.30 | Cc1[nH]c(C)c(-c2ccc(-c3ccc(Cl)cc3)cc2)c(=O)c1Cl [Example 8, 3-Chloro-5-(4'-chloro-4-biphenylyl)-2,6-dimethylpyridin-4(1H)-one] | 0.6 mg/kg
5.64 | CCCCCCCCc1c(C)[nH]c(C)c(C#N)c1=O [Example 10, 5-Cyano-2,6-dimethyl-3-octylpyridin-4(1H)-one] | 
4.63 | Cc1c(Br)c(=O)c(-c2ccc(Cl)cc2)c(C)n1C [Example 12, 3-Bromo-5-(4-Chlorophenyl)-1,2,6-trimethylpyridin-4-one] | 16.4 mg/kg
7.64 | Cc1[nH]c(C)c(-c2ccc(Oc3ccc(OC(F)(F)F)cc3)cc2)c(=O)c1Br [Example 14, 3-Bromo-5-(4-(4-trifluoromethoxyphenoxy)phenyl)-2,6-dimethylpyridin-4(1H)-one] | 0.34 mg/kg
7.70 | Cc1[nH]c(C)c(-c2ccc(Oc3ccc(OC(F)(F)F)cc3)cc2)c(=O)c1Cl [Example 15, 3-Chloro-5-(4-(4-trifluoromethoxyphenoxy)phenyl)-2,6-dimethylpyridin-4(1H)-one] | 0.19 mg/kg
5.80 | Cc1[nH]c(C)c(-c2ccc(Oc3ccc([S+](C)[O-])cc3)cc2)c(=O)c1Br (stereo not drawn) [Example 16, 3-Bromo-2,6-dimethyl-5-(4-(4-methylsulphinylphenoxy)phenyl)pyridin-4(1H)-one] | 
